Series [1] can be described thus: Solubility of menthol in composition ingredients. The format is physicochemical. The note with it: in liquid paraffin, white soft paraffin and essential oils.
Series [2] has as its system burning pain sensations in the vicinity of the vulva or anus. Briefly: Other trials of mint extract compositions (gel, cream, wipes, spray) applied topically against burning pains. Format: in vivo, human. As to the method:
The composition may comprise the extract or equivalent up to 10% w/w but it is preferably present in a concentration of not more than substantially 5% w/w of the composition.
Additional to these trials, compositions were prepared using menthol (and others using peppermint oil) embodied in a light cream (which included water) with which small pieces of soft cloth were impregnated to form wipes. […] Alternative combinations of ingredients could be utilised, e.g. as known to those skilled in the art, possibly including a pharmaceutically acceptable excipient for the active ingredient/s. Preferably, the composition should contain one or more of vitamins E, A and D combined with a moisturizing element in white soft paraffin form (obtained as “Vaseline”, Registered Trade Mark in the UK) or aloe form for delicate skins. The composition should preferably be formulated so that it is effectively greaseless and non-staining. It should not contain hexachlorophene.

These results are taken from US20050013821A1, “Mint extract and related pharmaceutical compositions” (priority 2001, published 2005).

With `CC1CCC(C(C)C)C(O)C1` (centres unmarked) [menthol], the solubility entry in series [1] is “at least 10 % w/w”. In series [2] (light cream (including water) impregnated on pieces of soft cloth), the “outcome of trials as wipes” value is given as “just as successful”. Also, the “relief compared with peppermint oil” value in series [2] (menthol used instead of peppermint oil) is reported as “Much improved relief”. Moreover, the “outcome of trials as spray” value in series [2] (spray including glycols, glycerol and ethanol) is “used successfully”. In series [2] (summary statement, related mint extracts), the “effect relative to peppermint oil” value is listed as “substantially more”.
